Test results published in patent publication US20240199546A1, “INHIBITORS OF SOLUTE CARRIER FAMILY 6A MEMBER 19 (SLC6A19) AND METHODS OF USE THEREOF” (Maze Therapeutics, Inc., priority 2022, published 2024).

biological target: T1, human SLC6A19 and TMEM27 (Homo sapiens, UniProt Q695T7); assay: Radiolabelled (3H) leucine uptake in CHO cells with doxycycline-inducible expression of human SLC6A19 and TMEM27 (Example B-1); assay type: cell-based; settings: CHO cells with doxycycline-inducible expression of human SLC6A19 and TMEM27, read-out: SLC6A19_Radioligand Uptake Assay IC50
T1 construct: expressed in transfected cells
T1 sequence (Q695T7 1-634): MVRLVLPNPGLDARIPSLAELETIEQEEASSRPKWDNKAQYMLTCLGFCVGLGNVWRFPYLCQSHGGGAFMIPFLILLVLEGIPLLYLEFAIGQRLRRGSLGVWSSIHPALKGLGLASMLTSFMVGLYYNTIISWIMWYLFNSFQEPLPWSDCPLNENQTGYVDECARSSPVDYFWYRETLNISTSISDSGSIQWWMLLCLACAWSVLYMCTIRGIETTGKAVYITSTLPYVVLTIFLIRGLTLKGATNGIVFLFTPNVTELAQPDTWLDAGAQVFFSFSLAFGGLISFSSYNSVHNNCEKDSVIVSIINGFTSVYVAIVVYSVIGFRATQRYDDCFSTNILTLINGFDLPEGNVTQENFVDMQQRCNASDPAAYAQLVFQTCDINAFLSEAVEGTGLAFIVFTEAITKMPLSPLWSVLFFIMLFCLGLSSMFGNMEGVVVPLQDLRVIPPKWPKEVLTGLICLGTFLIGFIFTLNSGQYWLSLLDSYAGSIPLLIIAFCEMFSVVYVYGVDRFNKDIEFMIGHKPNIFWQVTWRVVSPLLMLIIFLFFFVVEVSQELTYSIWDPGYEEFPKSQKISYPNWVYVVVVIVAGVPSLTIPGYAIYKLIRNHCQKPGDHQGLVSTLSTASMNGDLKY
T1 sequence (Q9HBJ8 15-222 partner): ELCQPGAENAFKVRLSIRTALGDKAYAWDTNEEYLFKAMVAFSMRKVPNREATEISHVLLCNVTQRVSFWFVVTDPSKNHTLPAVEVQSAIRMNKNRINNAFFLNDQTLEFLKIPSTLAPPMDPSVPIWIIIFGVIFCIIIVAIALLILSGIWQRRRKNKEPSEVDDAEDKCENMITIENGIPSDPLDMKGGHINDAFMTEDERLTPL
Outline: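 CHO cells were induced with doxycycline for 18 h at 37 °C, washed in HBSS, then exposed to compounds for 1 h: 8-point, 3-fold dilutions in duplicate, 0.5% DMSO final. Uptake measured by scintillation counting after 2 h shaking. Activity normalized with positive control as 0% and DMSO as 100%.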

| IC50 | Compound |
| --- | --- |
| 2100 nM | CC1(C(=O)NCc2cc3cc(CCC#N)c(OCc4cscn4)cc3[nH]2)CC1 [Compound 641, N-((5-(2-cyanoethyl)-6-(thiazol-4-ylmethoxy)-1H-indol-2-yl)methyl)-1-methylcyclopropane-1-carboxamide] |
| 152 nM | CC1(C(=O)NCc2cc3cc(F)c(COc4ccon4)cc3[nH]2)CC1 [Compound 612, N-((5-fluoro-6-((isoxazol-3-yloxy)methyl)-1H-indol-2-yl)methyl)-1-methylcyclopropane-1-carboxamide] |
| 385 nM | CC1(C(=O)NCc2cc3cc(OC(F)(F)F)c(CCc4ccon4)cc3[nH]2)CC1 [Compound 510, N-((6-(2-(isoxazol-3-yl)ethyl)-5-(trifluoromethoxy)-1H-indol-2-yl)methyl)-1-methylcyclopropane-1-carboxamide] |
| 567 nM | O=C(NCc1cc2cc(F)c(OCc3ccon3)cc2[nH]1)N1CCC1 [Compound 89, N-((5-fluoro-6-(isoxazol-3-ylmethoxy)-1H-indol-2-yl)methyl)azetidine-1-carboxamide] |
| 1190 nM | CC1(C(=O)NCc2cc3cc(Cl)c(OCC4COC4)cc3[nH]2)CC1 [Compound 336, N-((5-chloro-6-(oxetan-3-ylmethoxy)-1H-indol-2-yl)methyl)-1-methylcyclopropane-1-carboxamide] |
| 1580 nM | CC1(C(=O)NCc2cc3cc(-c4ccno4)c(OCc4cscn4)cc3[nH]2)CC1 [Compound 660, N-((5-(isoxazol-5-yl)-6-(thiazol-4-ylmethoxy)-1H-indol-2-yl)methyl)-1-methylcyclopropane-1-carboxamide] |
| 2740 nM | CC1(C(=O)NCc2cc3cc(CCC#N)c(OCc4ccon4)cc3[nH]2)CC1 [Compound 642, N-((5-(2-cyanoethyl)-6-(isoxazol-3-ylmethoxy)-1H-indol-2-yl)methyl)-1-methylcyclopropane-1-carboxamide] |
| 161 nM | O=C(NCc1cc2cc(Cl)c(OCc3ccon3)cc2[nH]1)C1CCC1 [Compound 488, N-((5-chloro-6-(isoxazol-3-ylmethoxy)-1H-indol-2-yl)methyl)cyclobutanecarboxamide] |
| 263 nM | CC1(C(=O)NCc2cc3cc(OC(F)(F)F)c(OCc4cscn4)cc3[nH]2)CC1 [Compound 434, 1-methyl-N-((6-(thiazol-4-ylmethoxy)-5-(trifluoromethoxy)-1H-indol-2-yl)methyl)cyclopropane-1-carboxamide] |
| 5070 nM | CC1(C(=O)NCc2cc3ccc(OCc4ccon4)c(F)c3[nH]2)CC1 [Compound 201, N-((7-fluoro-6-(isoxazol-3-ylmethoxy)-1H-indol-2-yl)methyl)-1-methylcyclopropane-1-carboxamide] |
| 359 nM | O=C(NCc1cc2cc(Cl)c(OCc3ccon3)cc2[nH]1)C1CCCC1 [Compound 492, N-((5-chloro-6-(isoxazol-3-ylmethoxy)-1H-indol-2-yl)methyl)cyclopentanecarboxamide] |

Second part, the compound before the results:

| Compound | IC50 |
| --- | --- |
| O=C(NCc1cc2cc(F)c(CCc3cscn3)cc2[nH]1)N1CCCC1 [Compound 601, N-((5-fluoro-6-(2-(thiazol-4-yl)ethyl)-1H-indol-2-yl)methyl)pyrrolidine-1-carboxamide] | 174 nM |
| CC(=O)NCc1cc2c(F)cc(OCc3cc(C)no3)cc2[nH]1 [Compound 527, N-((4-fluoro-6-((3-methylisoxazol-5-yl)methoxy)-1H-indol-2-yl)methyl)acetamide] | 4610 nM |
| Cc1cc(COc2cc3[nH]c(CNC(=O)[C@H]4C[C@@H]4F)cc3cc2Cl)on1 [Compound 538, (1R,2S)-N-((5-chloro-6-((3-methylisoxazol-5-yl)methoxy)-1H-indol-2-yl)methyl)-2-fluorocyclopropane-1-carboxamide] | 59.4 nM |
| CC(=O)NCc1cc2c(F)cc(OCc3cscn3)cc2[nH]1 [Compound 525, N-((4-fluoro-6-(thiazol-4-ylmethoxy)-1H-indol-2-yl)methyl)acetamide] | 157 nM |
| CO[C@@H](C)C(=O)NCc1cc2cc(Cl)c(OCc3cscn3)cc2[nH]1 [Compound 291, (S)-N-((5-chloro-6-(thiazol-4-ylmethoxy)-1H-indol-2-yl)methyl)-2-methoxypropanamide] | 197 nM |
| O=C(NCc1cc2cc(Cl)c(OCc3cscn3)cc2[nH]1)[C@@H]1CCOC1 [Compound 316, (R)-N-((5-chloro-6-(thiazol-4-ylmethoxy)-1H-indol-2-yl)methyl)tetrahydrofuran-3-carboxamide] | 284 nM |
| O=C(NCc1cc2cc(F)c(OCc3cocn3)cc2[nH]1)C1CC1 [Compound 428, N-((5-fluoro-6-(oxazol-4-ylmethoxy)-1H-indol-2-yl)methyl)cyclopropanecarboxamide] | 161 nM |
| CC1(C(=O)NCc2[nH]c3cc(OCc4cscn4)ccc3c2C(F)(F)F)CC1 [Compound 640, 1-methyl-N-((6-(thiazol-4-ylmethoxy)-3-(trifluoromethyl)-1H-indol-2-yl)methyl)cyclopropane-1-carboxamide] | 666 nM |
| O=C(NCc1cc2cc(Cl)c(OCc3cscn3)cc2[nH]1)[C@H]1C[C@H]1F [Compound 541, (1R,2R)-N-((5-chloro-6-(thiazol-4-ylmethoxy)-1H-indol-2-yl)methyl)-2-fluorocyclopropane-1-carboxamide] | 141 nM |
| [2H]C([2H])(NC(C)=O)c1cc2cc(Cl)c(OCc3cc(C)no3)cc2[nH]1 [Compound 345, N-((5-chloro-6-((3-methylisoxazol-5-yl)methoxy)-1H-indol-2-yl)methyl-d2)acetamide] | 62.7 nM |
| CN1CCC1C(=O)NCc1cc2cc(Cl)c(OCc3cscn3)cc2[nH]1 (racemic) [Compound 669, N-((5-chloro-6-(thiazol-4-ylmethoxy)-1H-indol-2-yl)methyl)-1-methylazetidine-2-carboxamide] | 3880 nM |
| CNCC(=O)NCc1cc2cc(Cl)c(OCc3cc(C)no3)cc2[nH]1 [Compound 615, N-((5-chloro-6-((3-methylisoxazol-5-yl)methoxy)-1H-indol-2-yl)methyl)-2-(methylamino)acetamide] | 2070 nM |
| [2H]C([2H])([2H])C(=O)NCc1cc2cc(F)c(OCc3cscn3)cc2[nH]1 [Compound 566, N-((5-fluoro-6-(thiazol-4-ylmethoxy)-1H-indol-2-yl)methyl)acetamide-2,2,2-d3] | 146 nM |
| O=C(NCc1cc2cc(OC(F)(F)F)c(OCc3cocn3)cc2[nH]1)N1CCCC1 [Compound 417, N-((6-(oxazol-4-ylmethoxy)-5-(trifluoromethoxy)-1H-indol-2-yl)methyl)pyrrolidine-1-carboxamide] | 394 nM |
| C[C@@H]1CCN(C(=O)NCc2cc3cc(F)c(OCc4cscn4)cc3[nH]2)C1 [Compound 387, (R)-N-((5-fluoro-6-(thiazol-4-ylmethoxy)-1H-indol-2-yl)methyl)-3-methylpyrrolidine-1-carboxamide] | 209 nM |
| CCC(=O)NCc1cc2c(F)cc(OCc3ccon3)cc2[nH]1 [Compound 517, N-((4-fluoro-6-(isoxazol-3-ylmethoxy)-1H-indol-2-yl)methyl)propionamide] | 243 nM |
| Cc1cc(C(C)Cc2ccc3cc(CNC(=O)C4(C)CC4)[nH]c3c2)no1 (centres unmarked) [Compound 195, 1-methyl-N-((6-(2-(5-methylisoxazol-3-yl)propyl)-1H-indol-2-yl)methyl)cyclopropanecarboxamide] | 14800 nM |
| Cc1cc(COc2cc3[nH]c(CNC(=O)C(C)(C)C#N)cc3cc2Cl)on1 [Compound 485, N-((5-chloro-6-((3-methylisoxazol-5-yl)methoxy)-1H-indol-2-yl)methyl)-2-cyano-2-methylpropanamide] | 578 nM |
| Cc1cc(COc2cc3[nH]c(CNC(=O)C(C)C#N)cc3cc2Cl)on1 (racemic) [Compound 486, (S)-N-((5-chloro-6-((3-methylisoxazol-5-yl)methoxy)-1H-indol-2-yl)methyl)-2-cyanopropanamide and (R)-N-((5-chloro-6-((3-methylisoxazol-5-yl)methoxy)-1H-indol-2-yl)methyl)-2-cyanopropanamide] | 387 nM |
| O=C(NCc1[nH]c2cc(OCc3cscn3)c(Cl)cc2c1Cl)N1CCC1 [Compound 474, N-((3,5-dichloro-6-(thiazol-4-ylmethoxy)-1H-indol-2-yl)methyl)azetidine-1-carboxamide] | 553 nM |
| Cc1cc(COc2cc3[nH]c(CNC(=O)[C@@H]4C[C@@H](F)CN4C)cc3cc2Cl)on1 [Compound 667, (2S,4R)—N-((5-chloro-6-((3-methylisoxazol-5-yl)methoxy)-1H-indol-2-yl)methyl)-4-fluoro-1-methylpyrrolidine-2-carboxamide] | 524 nM |
